For assay [1], the system named is osteoclast bone resorbtion. Particulars: in vitro (Ohba et al, 1996); cited from earlier work.
The subject of assay [2] is vacuolar-type proton pump. Particulars: cited from earlier work.
The test system of assay [3] is bone degration. As to conditions: in vivo, growing young rats (Keeling et al, 1997); cited from earlier work.
Assay [4] has as its system chloride channels in normal erythrocytes. In words: Cl- conductance (GCl) from concomitant measurement of conductive Cl- netfluxes and membrane potentials in erythrocyte suspensions. Type of assay: cell-based, human. Particulars: suspension of normal erythrocytes. The text has this: (§1) The compounds of the present invention are potent blockers of chloride channels in normal as well as sickle cell erythrocytes.
(§2) All dose-response experiments were therefore performed by concomitant measurements of conductive netfluxes of Cl^− (JCl) and membrane potentials (Vm) in suspensions of erythrocytes (Bennekou, P. and Christophersen, P. (1986), Flux ratio of Valinomycin - Mediated K^+ Fluxes across the Human Red Cell Membrane in the presence of the Protronophore CCCP. J. Membrane Biol. 93, 221-227. ). The membrane Cl^−conductances (GCl) were calculated by the following equation (Hodgkin, A. L. and Huxley, A. F. (1952) The components of membrane conductance in the giant axon of Loligo. J. Physiol. Lond. 116, 449-472): [formula]
(§3) where F is the Faraday constant, ECl is the Nernst potential for the Cl-ion.

For assay [5], the system named is chloride channels in homozygoteous sickle cell erythrocytes. In words: Cl- conductance (GCl) in suspensions of sickle cell erythrocytes. Type of assay: cell-based. Particulars: oxygenated as well as deoxygenated homozygoteous sickle cell erythrocytes.
Description: as §1, §2, §3

Assay [6] has as its system normal erythrocytes. In words: K+-flux estimated by measuring extracellular K+-concentration vs time. Type of assay: cell-based. As to conditions: 10 μM. The text has this: Deoxygenation induced permeability increases of sickle cells were estimated by measuring the extracellular K^+-concentration vs time. […] The K^+ flux from oxygenated sickle erythrocytes was 2-3 times higher than from normal erythrocytes and these fluxes was accelerated 4 - 8 times upon deoxygenation.

Take `CC(=O)Nc1nnc(S(N)(=O)=O)s1` [acetacolamide]: the “effect on bone resorbtion in pit formation assay” value in assay [1] is “effective”.

Consider `COc1ccc2[nH]c([S+]([O-])Cc3ncc(C)c(OC)c3C)nc2c1` (stereo not drawn) [omeprazol], for which, in assay [2], the “block of the proton pump” value is “ineffective”.

On to `CO/C1=C\C(C)=C\[C@@H](C)[C@@H](O)[C@@H](C)C/C(C)=C/C=C/[C@H](OC)[C@@H]([C@@H](C)[C@@H](O)[C@H](C)[C@@]2(O)C[C@@H](O)[C@H](C)[C@@H](C(C)C)O2)OC1=O` [bafilomycin A1], for which, in assay [2], the “block of the proton pump” value is “extremely potent, reversible inhibitor”. For the same molecule, the “effect on bone resorbtion in pit formation assay” value in assay [1] is “completely eliminates bone resorbtion”. Besides, in assay [3], the “effect on bone degration” value is “depresses bone degration”.

With `O=C(Nc1cccc(C(F)(F)F)c1)Nc1ccccc1C(=O)O` [3-Trifluoromethylphenyl-2-carboxyphenyl urea], in assay [4], the “block of GCl” value is recorded as “more than 95%”. The Kd in assay [4] (read-out: KD-value for block of GCl) was determined as 1.3 µM. Also, the “block of GCl from sickle cell erythrocytes” value in assay [5] is reported as “equipotently blocked”. Besides, the “sensitivity of K+-fluxes to compound” value in assay [6] is listed as “insensitive”.

Usually Kd stands for a measure of binding affinity in units of concentration.

The values are drawn from patent publication US6413996B2, “Diaminocyclobutene-3,4-dione derivatives, their preparation and use” (Neurosearch A/S, priority 1998, dated 2002).
